Data reported in US10028906B2, “Method and kit for treating a solid tumor and associated desmoplasia” (Rosalind Franklin Univ. of Medicine and Science, priority 2016, dated 2018).
Entries after “also recorded” stand apart in the source; their conditions may differ. Where no end group is shown, it is not given here.

What was measured:
[1] = tested on: Human MIA PaCa2-Luc, and Murine FC1199 pancreatic cancer cell lines; assay: in vitro cancer cell growth in two pancreatic cancer cell lines; assay type: cell-based; conditions: FIGS. 2-5
Source text: (§1) Peptides were examined in two different pancreatic cancer cell lines to determine consistency of response. We sought to determine if there was efficacy of the peptide alone, or in combination with conventional chemotherapy, i.e., does it potentiate the effects of current therapy. The two cell lines used were Human MIA PaCa2-Luc, and Murine FC1199 (derived from tumors in KPC GEM mice).
(§2) The in vitro studies used human MIA PaCa2-Luc, and Murine FC1199 cell lines.

[2] = tested on: MIA PaCa2-Luc cancer cells; assay: in vitro proliferation of MIA PaCa2-Luc cancer cells; assay type: cell-based, Human; conditions: FIG. 2
Source text: as §1
(§3) While not wishing to be bound to any particular theory, it was hypothesized that the peptides might still be effective in blocking the formation and/or removing the formation of desmoplasia or tumor stroma associated with a solid tumor alone acting to prevent and or to treat cancer and as well to providing greater access of the chemotherapeutic or immunotherapeutic agent to the tumor. […] It is believed that many large, and smaller, molecule immunotherapeutic agents will not react with Peptides 1 and 2 and they may also be used in combination with one another.
as §2

FC1199 cells = assay: in vitro FC1199 cell growth, gemcitabine repression; assay type: cell-based, Murine; conditions: FIGS. 3 and 5
Source text: as §1, §2

FC1199 orthotopic tumors [3] = assay: in vivo FC1199 orthotopic tumors, tumor burden as pancreas weight; design: species or system mice; conditions: for potentiation of the therapeutic effects of gemcitabine / chemotherapeutic agent in vivo: combination, pancreas weight, FIGS. 21 and 22; for tumor burden / tumor growth as measured by pancreas weight: orthotopic FC1199 tumors in mice, no day stated
Source text: FIGS. 1-24 show the in vitro and in vivo studies of CCNp37 (SEQ ID NO. 37) (Peptide 2 in the FIGS.) and CCNp38 (SEQ ID NO. 38) (Peptide 1 in the FIGS.) alone or in combination with a chemotherapeutic agent gemcitabine in treating pancreatic cells or orthotopic tumors implanted in the pancreas of mice. Gemcitibine is an example of an approved small molecule chemotherapeutic agent that is used in the clinic for pancreatic cancer, other suitable chemotherapeutic or immunotherapeutic agents are, for example, Abraxane (Paclitaxel Albumin-stabilized Nanoparticle Formulation), Afinitor (Everolimus), Erlotinib Hydrochloride, Everolimus, 5-FU (Fluorouracil Injection), Fluorouracil Injection, Gemcitabine Hydrochloride, Gemzar (Gemcitabine Hydrochloride), Irinotecan Hydrochloride Liposome, Mitomycin C, Mitozytrex (Mitomycin C), Mutamycin (Mitomycin C), Onivyde (Irinotecan Hydrochloride Liposome), Paclitaxel Albumin-stabilized Nanoparticle Formulation, Sunitinib Malate, Sutent (Sunitinib Malate), and Tarceva (Erlotinib Hydrochloride) and combinations of the same. Other suitable drug combinations for treating pancreatic cancer includes: FOLFIRINOX, GEMCITABINE-CISPLATIN, GEMCITABINE-OXALIPLATIN, and OFF. Suitable drugs for treatment for gastroenteropancreatic neuroendocrine tumors: Lanreotide Acetate, and Somatuline Depot (Lanreotide Acetate).
(§4) FIGS. 6-24 show the experimental protocol and results of in vivo studies of orthotopic tumors derived from the Murine FC1199 cell line and implanted into Kras and P53 mice.
FIGS. 18 and 19 show the protocol of a second in vivo experiment (Experiment 2).
(§5) FIGS. 21-24 show the protocol for the second invo experiment on the effectiveness of administering Peptides 1 and 2±gemcitabine. […] In FIG. 21, peptide 1 or 2 was delivered on day 11 of the study after tumor implantation and gemcitabine was delivered on day 14. […] Ascites formation is a marker of late stage pancreatic cancer and can predict mortality.

FC1199 orthotopic tumors [4] = assay: in vivo FC1199 orthotopic tumors, matrix deposition (desmoplasia); design: species or system mice; conditions: no day stated
Source text: as §3, §4

FC1199 orthotopic tumors [5] = assay: in vivo FC1199 orthotopic tumors, vessel number/vessel density (angiogenesis); design: species or system mice; conditions: no day stated
Source text: as §3

FC1199 orthotopic tumors [6] = assay: in vivo FC1199 orthotopic tumors, ascites production; design: species or system mice
Source text: as §5

[7] = in vivo toxicity study (body weight change); conditions: tumor-bearing mice
Source text: as §4
Ascites formation is a marker of late stage pancreatic cancer and can predict mortality.

renal fibrosis = conditions: disclosed in U.S. Pat. No. 7,780,949; cited from earlier work

In the case of “SDRSADPNNQTGIS [Peptide 1, Mouse analog with native cysteines replaced with serines]”, the “cancer growth / cell proliferation in vitro” value ([1]; agent alone) is reported as “did not slow cancer growth in vitro; also recorded: do not have an effect in cell proliferation”, the “potentiation of the effects of gemcitabine in reducing cancer growth in vitro” value ([1]; combination with gemcitabine) is reported as “did little or nothing to potentiate the effects of the chemotherapeutic agent gemcitabine in reducing cancer growth in vitro” and the “proliferation of MIA PaCa2-Luc cancer cells” value [2] is reported as “do not reduce the proliferation of MIA PaCa2-Luc cancer cells”. For the same molecule, the “potentiation of gemcitabine repression of FC1199 cell growth” value (FC1199 cells) was “did not potentiate the effects of gemcitabine in repressing of FC1199 cell growth”, the “tumor burden in terms of pancreas weight, day 14” value (FC1199 orthotopic tumors [3]; Experiment 2, day 14, vs control) was “effective in reducing the tumor burden in terms of reduced pancreas weight when compared to a control” and the “tumor burden in terms of pancreas weight, day 25” value (FC1199 orthotopic tumors [3]; Experiment 2, day 25, vs control) was “effective in reducing the tumor burden in terms of reduced pancreas weight when compared to a control”. The “potentiation of the therapeutic effects of gemcitabine / chemotherapeutic agent in vivo” value (FC1199 orthotopic tumors [3]) was “can potentiate the therapeutic effects of the standard chemotherapeutic agent gemcitabine”, the “potentiation of the therapeutic effects of gemcitabine / chemotherapeutic agent in vivo” value (FC1199 orthotopic tumors [3]; listed as CCNp38) was “treat a solid tumor more effectively than the chemotherapeutic or immunotherapeutic agents alone” and the “tumor burden / tumor growth as measured by pancreas weight” value (FC1199 orthotopic tumors [3]) was “effective in reducing the growth of orthotopic FC1199 tumor burden as measured by pancreas weight; also recorded: effective in reducing tumor growth and weight”. The “expansion and spread of the tumor and cancer cells” value (FC1199 orthotopic tumors [3]; overview FIG. 1) was “blocking the expansion and spread of the tumor and cancer cells”, the “desmoplasia as measured by matrix deposition area” value (FC1199 orthotopic tumors [4]) was “effective in treating desmoplasia or stroma associated with a solid tumor; also recorded: a reduction in desmoplasia as measured by matrix deposition area” and the “angiogenesis as measured by vessel number/vessel density” value (FC1199 orthotopic tumors [5]) was “reducing angiogenesis; also recorded: a reduction in angiogenesis as measured by vessel number/vessel density”. For the same molecule, the “number of mice with ascites / ascites formation” value (FC1199 orthotopic tumors [6]; day 25, vs control) was “reducing the formation of ascites associated with a solid tumor; also recorded: effective in reducing the number of mice with ascites” and the inflammation (FC1199 orthotopic tumors [6]; inferred from ascites data) was “reduce inflammation”.

For `Nc1ccn([C@@H]2O[C@H](CO)[C@@H](O)C2(F)F)c(=O)n1` [Gemcitabine, gemcitabine, reference compound], the “tumor burden / tumor growth as measured by pancreas weight” value (FC1199 orthotopic tumors [3]) was “produces a dose-dependent response to tumor burden”.

For “FSGVSSDGRSSTPH [Peptide 2, FSGVSSDGRSSTPH]”, the “toxicity (body weight change)” value [7] was “non-toxic”.

B1: full-length CCN3 molecule: full-length CCN3 protein of U.S. Pat. No. 7,780,949 (protein, UniProt P48745 1-357, looked up)
chain: MQSVQSTSFCLRKQCLCLTFLLLHLLGQVAATQRCPPQCPGRCPATPPTCAPGVRAVLDGCSCCLVCARQRGESCSDLEPCDESSGLYCDRSADPSNQTGICTAVEGDNCVFDGVIYRSGEKFQPSCKFQCTCRDGQIGCVPRCQLDVLLPEPNCPAPRKVEVPGECCEKWICGPDEEDSLGGLTLAAYRPEATLGVEVSDSSVNCIEQTTEWTACSKSCGMGFSTRVTNRNRQCEMLKQTRLCMVRPCEQEPEQPTDKKGKKCLRTKKSLKAIHLQFKNCTSLHTYKPRFCGVCSDGRCCTPHNTKTIQAEFQCSPGQIVKKPVMVIGTCTCHTNCPKNNEAFLQELELKTTRGKM
modifications: full-length
In the case of B1, the “fibrosis in an in vitro model of renal fibrosis” value (renal fibrosis) is listed as “blocks fibrosis”.
